The text below walks through data of patent publication US20210170043A1, “DC-SIGN ANTIBODY CONJUGATES COMPRISING STING AGONISTS” (NOVARTIS AG, priority 2018, published 2021).

One test concerns the target T1, human STING wild type (Homo sapiens, UniProt Q86WV6, H232R).
T1 construct: expressed in transfected cells; host or cells: HEK-293T
Briefly: hSTING wt assay (5xISRE-mIFNb-GL4 luciferase reporter in transfected HEK-293T cells). It is filed as cell-based. To be noted: read after 9-14 hours, normalized to 2'3'-cGAMP at 50 uM. On the procedure:
Cells were incubated overnight and treated with compounds. After 9-14 hours, plates were read by adding BrightGlo reagent (Promega) and reading on an Envision plate reader. The fold change over background was calculated and normalized to the fold-change induced by 2′3′-cGAMP at 50 uM. Plates were run in triplicate.

The test system of the next test is THP1-Dual cells. Briefly: THP1-Dual assay (Lucia reporter). It is filed as cell-based. The settings on record: Homo sapiens, 384 well, 16-24 hours, normalized to 2'3'-cGAMP at 50 uM. On the procedure: THP1-Dual cells were purchased from Invivogen. THP1-Dual cells were plated in 384 well plates in 20 uL of tissue culture media and incubated overnight. Compounds were added the next day and incubated 16-24 hours. Lucia reporter signal was read out by adding Quantiluc reagent (Invivogen) followed by reading on an Envision plate reader. The fold change over background was calculated and normalized to the fold-change induced by 2′3′-cGAMP at 50 uM. Plates were run in triplicate.

The test system of another test is THP1-Dual/STING-KO cells. Briefly: THP1-Dual/STING-KO assay. It is filed as cell-based. The settings on record: Homo sapiens, pooled STING-KO clones. As to the method: The fold change over background was calculated and normalized to the fold-change induced by 2′3′-cGAMP at 50 uM. Plates were run in triplicate.
For test [1], the system named is transgenic mice expressing human DC-SIGN gene (Tg+). Briefly: Plasma cytokine production in transgenic mice expressing human DC-SIGN (ELISA / MesoScaleDiscovery). It is filed as in vivo, mouse. On the procedure:
FIGS. 5A-5E show exemplary data on DC-SIGN immunoconjugates inducing cytokine production in Tg+ mice. […] Plasma levels were analyzed by ELISA (IP-10 and IFNβ) or MesoScaleDiscovery Multiplex analysis (all other analytes). **** denotes p value of <0.0001 using an ANOVA with Tukey's test compared to Tg-2B2 hlgG1 DAPA C1 group.
(§1) Mice were bled 6 hours after dosing to collect plasma for analysis of circulating cytokine levels.

The test system is the same in test [2]. Briefly: Plasma cytokine and chemokine levels in human DC-SIGN transgenic mice. It is filed as in vivo, mouse. To be noted: 100 μg free compound i.v., 6 hours post dose, vs untreated and 10 μg. On the procedure:
Blood was collected at 6 hours post dose to analyze plasma cytokine and chemokine levels and spleens were analyzed at 24 hours post dose to look at dendritic cell activation.
as §1
Plasma was collected at indicated timepoints and analyzed with a Mouse IP-10 Platinum ELISA kit (eBioscience Affymetrix). Plasma was diluted 1:100 and the protocol was followed according to the manufacturer's recommendations. Data was collected using an Enspire spectro-photometer using […] as the primary wavelength.
Plasma was collected at indicated timepoints and analyzed with a Mouse IFN-beta ELISA kit (R&D Systems) according to the manufacturer's recommendations. Data was collected using an Enspire spectro-photometer using […] as the primary wavelength.
Plasma was collected at indicated timepoints and analyzed with a mouse Proinflammatory Panel 1 (mouse) Kit V-PLEX™ 10 plex from MesoScale Discovery. 25 μL of plasma per sample was used and protocol was followed according to the manufacturer's recommendations. Data were collected and analyzed using a Sector Imager 6000.
Human DC-SIGN transgenic mice (Tg+) (Schaefer et al., J. Immunol. (2008) 180 (10) 6836-6845) were bred to Signr1 deficient mice (−/− or KO) (Orr et al., Glycobiology (2013) 23(3): 363-380). Human DC-SIGN expression was checked using PCR to genotype the mice. Human DC-SIGN Tg+ Signr1−/− mice or human DC-SIGN Tg− Signr1−/− mice were tested with compounds as indicated in the above examples.

Molecules are shown by their SMILES. Some results are limits rather than exact numbers.

T1 sequence (Q86WV6 whole entry H232R): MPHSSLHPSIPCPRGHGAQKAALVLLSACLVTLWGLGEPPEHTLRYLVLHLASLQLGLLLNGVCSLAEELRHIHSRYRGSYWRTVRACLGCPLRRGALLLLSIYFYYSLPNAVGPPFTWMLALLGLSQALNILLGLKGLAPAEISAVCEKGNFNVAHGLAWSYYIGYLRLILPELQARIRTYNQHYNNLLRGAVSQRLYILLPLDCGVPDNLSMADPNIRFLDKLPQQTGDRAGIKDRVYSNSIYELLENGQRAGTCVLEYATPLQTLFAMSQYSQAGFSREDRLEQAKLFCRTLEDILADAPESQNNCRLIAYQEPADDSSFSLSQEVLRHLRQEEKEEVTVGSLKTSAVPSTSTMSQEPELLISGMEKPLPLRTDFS

In the case of `NCCCNc1ncnc2c1ncn2[C@@H]1O[C@@H]2CO[P@@](=O)(S)O[C@H]3[C@@H](F)[C@H](n4cnc5c(N)ncnc54)O[C@@H]3CO[P@@](=O)(S)O[C@H]2[C@H]1F`, the EC50 on human STING wild type is more than 25000 nM.
`CCCCCCCCCCO[C@@H]1[C@@H]2O[P@](=O)(S)OC[C@H]3O[C@@H](n4cnc5c(N)ncnc54)[C@H](O[P@](=O)(S)OC[C@H]2O[C@H]1n1cnc2c(N)ncnc21)[C@@H]3O` came in with a concentration giving a half-maximal response (EC50) in the test on THP1-Dual cells of more than 25000 nM.
As to `Nc1ncnc2c1ncn2C1OC2COP(=O)(S)OC3C(COP(=O)(S)OC2C1F)OC(n1cnc2c(N)ncnc21)C3F` (stereo not drawn) [Compound T1-1, di-2′-F—RR-CDA], on human STING wild type, the concentration giving a half-maximal response (EC50) worked out at 294 nM. This compound showed a half-maximal effective concentration (EC50) with THP1-Dual cells of 462 nM. Besides, the EC50 with THP1-Dual/STING-KO cells was more than 50000 nM. For the same compound, in test [1], the “circulating plasma IL-12p70” value is given as “increased”, the “circulating plasma IP-10” value is recorded as “increased” and the “circulating plasma TNFα” value is “increased”. Further, in test [2], the “plasma IL-12p70” value is listed as “increased”, the “plasma IP-10” value is “increased” and the “plasma TNFα” value was “increased”.
For the compound `Nc1ncnc2c1ncn2[C@@H]1O[C@@H]2CO[P@@](=O)(S)O[C@@H]3[C@H](O)[C@@H](CO[P@@](=O)(S)O[C@H]2[C@H]1F)O[C@H]3n1cnc2c(N)ncnc21` [Compound T1-2], in the test with THP1-Dual cells, the response was half-maximal at 1990 nM (EC50).
